Source: ChEMBL document CHEMBL3988442, “University of Dundee, Small-Polar-MMV Screening Library” (2021)
Values joined by “and” are separate entries in the source; they are usually repeats but may differ in a detail not shown here. Identical values can stand only once.

What was measured:
[1] = target: Chromo domain-containing protein 1 (Saccharomyces cerevisiae (strain ATCC 204508 / S288c) (Baker's yeast), UniProt P32657); experiment: ScCHD-1 Enzyme Inhibition Assay; format: functional
Histidine--tRNA ligase = target: T1, Histidine--tRNA ligase (Leishmania infantum, UniProt A4I591); experiment: Leishmania infantum Histidine tRNA synthetase (LdHisRS); format: functional
T1 sequence (A4I591 whole entry): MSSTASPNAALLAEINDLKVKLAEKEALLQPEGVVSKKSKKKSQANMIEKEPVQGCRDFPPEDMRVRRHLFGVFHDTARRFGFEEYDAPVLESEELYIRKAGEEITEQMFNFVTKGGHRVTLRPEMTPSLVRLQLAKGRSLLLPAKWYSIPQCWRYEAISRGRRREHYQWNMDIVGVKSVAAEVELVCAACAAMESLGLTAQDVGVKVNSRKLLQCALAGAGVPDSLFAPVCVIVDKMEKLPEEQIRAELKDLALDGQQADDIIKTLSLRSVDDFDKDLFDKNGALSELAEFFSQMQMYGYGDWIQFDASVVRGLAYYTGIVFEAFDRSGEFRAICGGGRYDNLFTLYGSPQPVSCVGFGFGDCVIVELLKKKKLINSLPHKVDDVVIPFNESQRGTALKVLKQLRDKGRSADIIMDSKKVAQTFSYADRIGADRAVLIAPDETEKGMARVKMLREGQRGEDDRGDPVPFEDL

Lysine--tRNA ligase = Lysine--tRNA ligase (Plasmodium falciparum (isolate 3D7), UniProt Q8IDJ8); experiment: Pf-KRS-1 (Lysyl-RNA Synthetase-1, KRS-1, cytosolic KRS) from Plasmodium falciparum. Inhibitor assay, 384 well plate, luminescence read.; format: functional
[2] = target: T2, Ubiquitin-activating enzyme e1, putative (Leishmania donovani (strain BPK282A1), UniProt E9BSI1); experiment: Leishmania donovani Ubiquitin Activating Enzyme (LdE1); format: functional
T2 sequence (E9BSI1 whole entry): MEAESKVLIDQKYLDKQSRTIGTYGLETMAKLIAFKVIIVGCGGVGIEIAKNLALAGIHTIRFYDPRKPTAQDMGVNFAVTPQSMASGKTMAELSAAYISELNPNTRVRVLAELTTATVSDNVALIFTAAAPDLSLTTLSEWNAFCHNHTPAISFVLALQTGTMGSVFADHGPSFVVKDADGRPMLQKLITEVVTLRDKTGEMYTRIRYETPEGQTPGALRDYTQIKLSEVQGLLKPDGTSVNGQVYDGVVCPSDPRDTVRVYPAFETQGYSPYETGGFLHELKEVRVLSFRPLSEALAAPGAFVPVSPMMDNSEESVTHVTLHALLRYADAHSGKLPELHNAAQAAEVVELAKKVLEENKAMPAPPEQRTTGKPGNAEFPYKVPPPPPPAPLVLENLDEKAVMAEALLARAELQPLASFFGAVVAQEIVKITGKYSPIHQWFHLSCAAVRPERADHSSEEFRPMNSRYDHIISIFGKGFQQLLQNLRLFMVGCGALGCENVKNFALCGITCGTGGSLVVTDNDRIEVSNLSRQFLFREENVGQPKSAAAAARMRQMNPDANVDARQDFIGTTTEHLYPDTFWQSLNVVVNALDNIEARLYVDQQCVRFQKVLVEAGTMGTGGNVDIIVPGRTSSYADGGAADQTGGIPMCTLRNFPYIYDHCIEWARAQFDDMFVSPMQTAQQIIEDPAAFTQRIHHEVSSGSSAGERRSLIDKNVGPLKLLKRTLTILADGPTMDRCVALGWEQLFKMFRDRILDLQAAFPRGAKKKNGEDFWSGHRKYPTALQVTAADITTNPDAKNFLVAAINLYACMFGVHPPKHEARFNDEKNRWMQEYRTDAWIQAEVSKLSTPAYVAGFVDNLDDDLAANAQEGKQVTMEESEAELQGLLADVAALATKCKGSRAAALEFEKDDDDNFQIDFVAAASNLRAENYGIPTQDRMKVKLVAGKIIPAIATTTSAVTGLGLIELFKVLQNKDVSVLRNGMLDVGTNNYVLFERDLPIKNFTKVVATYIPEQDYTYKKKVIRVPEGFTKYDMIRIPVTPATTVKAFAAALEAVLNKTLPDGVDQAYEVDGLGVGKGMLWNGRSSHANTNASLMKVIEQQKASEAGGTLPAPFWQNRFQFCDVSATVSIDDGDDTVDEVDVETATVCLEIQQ

Plasmodium falciparum = experiment: Plasmodium falciparum sporozoite viability assay; format: functional, organism-based; settings: Plasmodium falciparum
[3] = target: Polyketide synthase Pks13 (Mycobacterium tuberculosis (strain ATCC 25618 / H37Rv), UniProt I6X8D2); experiment: Mycobacterium tuberculosis Polyketide synthase 13 Thioesterase (PKS13); format: functional
Sequence of Polyketide synthase Pks13 (I6X8D2 whole entry): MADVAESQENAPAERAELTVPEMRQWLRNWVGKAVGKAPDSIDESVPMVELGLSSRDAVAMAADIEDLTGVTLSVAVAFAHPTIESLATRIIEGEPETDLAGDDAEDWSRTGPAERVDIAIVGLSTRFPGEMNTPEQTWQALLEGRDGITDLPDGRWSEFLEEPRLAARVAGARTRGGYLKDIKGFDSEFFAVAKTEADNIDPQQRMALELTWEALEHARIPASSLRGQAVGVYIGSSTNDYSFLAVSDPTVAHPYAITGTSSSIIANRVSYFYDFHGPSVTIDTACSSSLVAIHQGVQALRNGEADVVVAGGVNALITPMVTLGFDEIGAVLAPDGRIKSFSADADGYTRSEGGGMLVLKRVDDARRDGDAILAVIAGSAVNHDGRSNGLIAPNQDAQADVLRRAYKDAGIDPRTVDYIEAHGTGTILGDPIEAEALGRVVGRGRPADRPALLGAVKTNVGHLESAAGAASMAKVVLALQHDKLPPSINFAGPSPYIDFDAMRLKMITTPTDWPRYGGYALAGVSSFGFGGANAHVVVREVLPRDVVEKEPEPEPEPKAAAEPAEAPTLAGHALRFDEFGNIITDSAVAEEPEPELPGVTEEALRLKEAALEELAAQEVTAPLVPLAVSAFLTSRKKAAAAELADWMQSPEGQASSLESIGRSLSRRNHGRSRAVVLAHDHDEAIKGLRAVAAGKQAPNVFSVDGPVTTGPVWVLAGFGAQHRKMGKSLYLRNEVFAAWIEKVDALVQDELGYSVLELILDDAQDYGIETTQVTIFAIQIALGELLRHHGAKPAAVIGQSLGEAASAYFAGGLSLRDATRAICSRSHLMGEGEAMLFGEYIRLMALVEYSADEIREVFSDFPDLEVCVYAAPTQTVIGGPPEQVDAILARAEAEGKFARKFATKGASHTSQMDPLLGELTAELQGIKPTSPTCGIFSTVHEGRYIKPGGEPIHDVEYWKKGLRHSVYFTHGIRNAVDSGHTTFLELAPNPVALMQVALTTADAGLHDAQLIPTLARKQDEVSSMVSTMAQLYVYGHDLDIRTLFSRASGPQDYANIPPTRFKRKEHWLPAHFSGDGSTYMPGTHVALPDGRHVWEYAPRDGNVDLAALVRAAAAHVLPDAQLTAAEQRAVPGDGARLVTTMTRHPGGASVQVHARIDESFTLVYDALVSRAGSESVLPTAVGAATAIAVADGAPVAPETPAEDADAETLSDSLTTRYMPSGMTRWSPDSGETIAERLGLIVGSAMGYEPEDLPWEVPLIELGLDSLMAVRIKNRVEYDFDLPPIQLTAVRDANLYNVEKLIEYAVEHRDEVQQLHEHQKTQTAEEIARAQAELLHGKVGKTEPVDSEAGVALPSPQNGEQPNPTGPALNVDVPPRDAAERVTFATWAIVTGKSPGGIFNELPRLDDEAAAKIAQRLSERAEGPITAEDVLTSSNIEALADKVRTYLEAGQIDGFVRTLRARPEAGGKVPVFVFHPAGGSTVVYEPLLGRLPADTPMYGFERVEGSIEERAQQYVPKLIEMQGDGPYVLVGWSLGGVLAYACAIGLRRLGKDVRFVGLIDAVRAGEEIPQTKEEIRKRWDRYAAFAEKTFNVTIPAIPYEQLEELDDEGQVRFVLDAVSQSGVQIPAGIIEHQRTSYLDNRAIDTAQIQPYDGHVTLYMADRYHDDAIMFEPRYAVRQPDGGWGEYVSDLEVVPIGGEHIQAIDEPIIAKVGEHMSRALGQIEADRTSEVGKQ

Sequence of Chromo domain-containing protein 1 (P32657 whole entry, the tested form may be a part): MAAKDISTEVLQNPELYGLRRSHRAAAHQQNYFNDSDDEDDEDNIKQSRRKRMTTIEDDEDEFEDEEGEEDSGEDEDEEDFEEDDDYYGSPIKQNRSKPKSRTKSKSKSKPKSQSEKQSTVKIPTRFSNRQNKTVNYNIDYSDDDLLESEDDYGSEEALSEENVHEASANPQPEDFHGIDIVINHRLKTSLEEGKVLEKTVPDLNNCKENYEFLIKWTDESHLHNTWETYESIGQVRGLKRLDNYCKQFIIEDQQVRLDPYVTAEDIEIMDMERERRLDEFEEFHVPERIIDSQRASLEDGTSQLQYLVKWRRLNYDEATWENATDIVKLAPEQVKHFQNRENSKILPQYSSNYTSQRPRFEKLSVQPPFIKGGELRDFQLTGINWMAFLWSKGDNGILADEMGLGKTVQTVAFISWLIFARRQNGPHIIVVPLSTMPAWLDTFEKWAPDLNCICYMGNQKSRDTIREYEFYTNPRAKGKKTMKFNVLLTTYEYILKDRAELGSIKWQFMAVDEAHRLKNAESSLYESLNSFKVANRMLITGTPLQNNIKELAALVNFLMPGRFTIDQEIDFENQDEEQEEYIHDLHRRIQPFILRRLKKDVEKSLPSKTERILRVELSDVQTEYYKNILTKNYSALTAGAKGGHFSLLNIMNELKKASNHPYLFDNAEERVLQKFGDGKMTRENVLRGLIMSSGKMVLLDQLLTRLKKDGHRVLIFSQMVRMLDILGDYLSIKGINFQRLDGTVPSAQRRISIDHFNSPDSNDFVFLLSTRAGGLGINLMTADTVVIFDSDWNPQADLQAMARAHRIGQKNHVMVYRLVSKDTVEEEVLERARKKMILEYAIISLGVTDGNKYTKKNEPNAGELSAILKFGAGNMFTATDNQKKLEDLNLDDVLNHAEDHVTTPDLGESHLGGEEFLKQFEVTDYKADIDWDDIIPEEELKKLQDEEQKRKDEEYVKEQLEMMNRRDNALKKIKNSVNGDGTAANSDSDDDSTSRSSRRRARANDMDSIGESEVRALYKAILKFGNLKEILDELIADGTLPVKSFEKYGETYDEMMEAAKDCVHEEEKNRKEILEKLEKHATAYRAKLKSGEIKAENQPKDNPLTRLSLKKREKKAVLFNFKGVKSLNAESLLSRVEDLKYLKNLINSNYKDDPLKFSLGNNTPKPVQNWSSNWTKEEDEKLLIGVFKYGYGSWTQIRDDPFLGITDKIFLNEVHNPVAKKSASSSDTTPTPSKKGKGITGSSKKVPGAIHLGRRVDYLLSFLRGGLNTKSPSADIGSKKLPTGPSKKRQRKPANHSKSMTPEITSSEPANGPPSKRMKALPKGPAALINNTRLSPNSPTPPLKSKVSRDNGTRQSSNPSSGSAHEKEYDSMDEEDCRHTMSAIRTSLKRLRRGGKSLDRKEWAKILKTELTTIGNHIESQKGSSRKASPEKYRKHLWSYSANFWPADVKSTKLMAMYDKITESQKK
Sequence of Lysine--tRNA ligase (Q8IDJ8 whole entry): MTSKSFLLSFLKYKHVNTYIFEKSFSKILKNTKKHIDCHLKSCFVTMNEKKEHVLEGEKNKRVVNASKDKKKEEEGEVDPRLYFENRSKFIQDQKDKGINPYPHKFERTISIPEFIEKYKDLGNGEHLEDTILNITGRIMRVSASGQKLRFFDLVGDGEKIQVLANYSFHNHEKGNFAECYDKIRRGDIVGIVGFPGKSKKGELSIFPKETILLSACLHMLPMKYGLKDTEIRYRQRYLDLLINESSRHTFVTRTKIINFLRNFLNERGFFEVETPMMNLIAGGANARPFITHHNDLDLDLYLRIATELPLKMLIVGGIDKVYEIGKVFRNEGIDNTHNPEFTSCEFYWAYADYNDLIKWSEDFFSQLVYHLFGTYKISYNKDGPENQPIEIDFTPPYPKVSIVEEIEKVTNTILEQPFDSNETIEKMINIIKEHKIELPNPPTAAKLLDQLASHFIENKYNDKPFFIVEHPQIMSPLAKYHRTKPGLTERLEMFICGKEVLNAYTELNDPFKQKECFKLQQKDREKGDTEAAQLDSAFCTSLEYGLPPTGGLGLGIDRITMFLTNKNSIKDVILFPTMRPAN

| Compound | IC50 [1] | further results |
| --- | --- | --- |
| COCCN1CCN(CCCS(C)(=O)=O)CC1C (centres undefined) | > 29.5 µM | – |
| Cc1cc(C)n(CC2CN(Cc3cccc(C(N)=O)c3)CCO2)n1 (centres undefined) | > 29.5 µM | – |
| COCc1nc2cc(NCc3sc(C)nc3C)ccc2o1 | – | IC50 (Histidine--tRNA ligase): 15.1 µM and 19.3 µM; IC50 (Lysine--tRNA ligase): > 50.1 µM; IC50 [2]: > 100 µM |
| O=C(c1ccnnc1)N1C[C@@H](OCC2CCOCC2)[C@H]2OCCC[C@H]21 | > 29.5 µM | – |
| O=C(NCc1ccco1)[C@H]1C[C@H]2OCC[C@H]2N(C(=O)c2ccco2)C1 | > 29.5 µM | – |
| Cc1cc(NC(=O)Cn2cc(C#N)c(=O)c3cc(Br)ccc32)no1 | > 29.5 µM and 25.6 µM | – |
| CN(Cc1cccc(F)c1)C(=O)CN1CCCC1CCc1ccccc1 (centres undefined) | > 29.5 µM | – |
| CCc1ccc(-n2c(=O)[nH]c3nc(N4CCSCC4)ncc3c2=O)cc1 | > 29.5 µM | – |
| CS(=O)(=O)NCc1cc2n(n1)CCCN(Cc1cccc(C#N)c1)C2 | > 29.5 µM | – |
| CCn1nc(CC(C)C)cc1C(=O)N1CC[C@@H](O)C1 | > 29.5 µM | – |
| CN(C(=O)C1CCCCC1)[C@@H]1CCC[C@@H](N2CCOCC2)[C@@H]1O | > 29.5 µM | – |
| CN(C)Cc1ccc(C2CCCCN2C(=O)c2cccc(CO)n2)cc1 (centres undefined) | > 29.5 µM | – |
| O=C(CCc1c[nH]cn1)N1CC[C@@H](c2ccc3ccccc3c2)[C@H](O)C1 | > 29.5 µM | – |
| COCCN(C(=O)c1ccccn1)c1nc2c(s1)CCc1c-2cnn1C | – | IC50 (Histidine--tRNA ligase): 9.13 µM and 10.9 µM; IC50 (Lysine--tRNA ligase): > 50.1 µM; IC50 (Plasmodium falciparum): 0.574 µM; IC50 [2]: > 100 µM |
| COc1ccc(C(=O)C2CCCN(Cc3ccncc3)C2)c(OC)c1 (centres undefined) | > 29.5 µM | – |
| O=C(NC1CC1)[C@H]1CC[C@@H]2[C@@H](CCN2c2ncc(F)cn2)O1 | > 29.5 µM | – |
| O=C(NC1CC1)[C@H]1C[C@H]2OCC[C@H]2N(CC2CCOCC2)C1 | > 29.5 µM | – |
| CC(=O)c1cccc(NC(=O)Cn2cc(I)cn2)c1 | > 29.5 µM | – |
| CN(C)C(CNC(=O)c1cc2c([nH]c1=O)CCCC2=O)c1ccsc1 (centres undefined) | > 29.5 µM | – |
| O=C(COc1coc(CN2CCCCCC2)cc1=O)c1ccccc1 | > 29.5 µM | – |

| Compound | IC50 [1] | further results |
| --- | --- | --- |
| O=C1CSC(c2cccs2)c2cnn(C3CCCC3)c2N1 (centres undefined) | > 29.5 µM | – |
| COCc1nc2cc(NCc3nc(C)cs3)ccc2o1 | – | IC50 (Histidine--tRNA ligase): 24.1 µM and 33.1 µM; IC50 (Lysine--tRNA ligase): > 50.1 µM; IC50 [2]: > 100 µM |
| CCc1c(C)nn(CCNC(=O)C2CCCN(C(=O)N(C)C)C2)c1C (centres undefined) | > 29.5 µM | – |
| CCOCCN1CCN(Cc2cccc(C(=O)N(C)C)c2)CC1 | > 29.5 µM | – |
| CCn1ccnc1CN1CCC(CCC(=O)Nc2ccccc2Cl)CC1 | > 29.5 µM | – |
| Cc1ccc(C(=O)NCCCN2CCOCC2)c(Cl)c1 | > 29.5 µM | – |
| Cc1nc(N)sc1C(=O)N1CCCC(c2nccn2CCCN(C)C)C1 (centres undefined) | > 29.5 µM | – |
| CC(NC(=O)c1cc(Br)c2c(c1)OCCO2)C(N)=O (centres undefined) | > 29.5 µM | – |
| CCc1ccc(NC(=O)N2C[C@H]3C[C@H](C(=O)NC)[C@@H](C2)O3)cc1 | > 29.5 µM | – |
| CCCN(C(=O)c1cnc(C)cn1)c1nc2c(s1)CCc1c-2cnn1C | – | IC50 (Histidine--tRNA ligase): 43.9 µM and 33.5 µM; IC50 (Lysine--tRNA ligase): > 50.1 µM; IC50 [2]: > 100 µM |
| CNC(=O)COc1ccccc1CNC1CCc2ncnn2C1 (centres undefined) | > 29.5 µM | – |
| CCCN1CCCn2nc(CNS(=O)(=O)c3cccc(C#N)c3)cc2C1 | > 29.5 µM | – |
| c1cnn(Cc2nnc(C3CCN(C4CCOCC4)CC3)n2C2CC2)c1 | > 29.5 µM | – |
| CNc1cc(N2CCCC2CNCc2ccc(Cl)o2)ncn1 (centres undefined) | > 29.5 µM | – |
| Cc1cccc(CN2CC[C@@H]3[C@@H]2CCN3C(=O)c2ccno2)n1 | > 29.5 µM | – |
| O=C(NCC(F)(F)F)NC1CCCc2c1cnn2CCO (centres undefined) | > 29.5 µM | – |
| CCn1nccc1CNC(=O)C1CC1 | > 29.5 µM | – |
| CN(C)c1ccc(C(=O)N2CCN(C(=O)N3CCCCC3)CC2)nn1 | – | IC50 [3]: > 100 µM; IC50 [2]: > 100 µM |
| CCCN(C(=O)COC)c1nc2c(s1)CCc1c-2cnn1C | – | IC50 (Histidine--tRNA ligase): 7.02 µM and 8.63 µM; IC50 (Lysine--tRNA ligase): > 50.1 µM; IC50 [2]: > 100 µM |
| COCc1nc2cc(NCc3ccc(C)o3)ccc2o1 | – | IC50 (Histidine--tRNA ligase): 67.5 µM and 55.3 µM; IC50 (Lysine--tRNA ligase): > 50.1 µM; IC50 [2]: > 100 µM |
